Several values for one entry are separate records, joined by “and”; a condition that tells them apart may be missing. Equal entries are not always repeated. Inconclusive results and toxic doses are left out. Rule as the data show it: active = T/C of 150% or more; inactive = T/C below 125%.
Test system: L1210 leukemia ip in BDF1 mice, survival T/C
Assay: NCI In Vivo Anticancer Drug Screen. Data for tumor model L1210 Leukemia (intraperitoneal) in B6D2F1 (BDF1) mice
Details: endpoint: mean survival time, higher = longer survival
Description: The antitumor activity of compounds was measured in mice bearing transplantable tumors. Survival or tumor size were measured and the results are expressed as the measurement made in the treated group (T) divided by the measurement made in the vehicle treated control group (C). The tumor model used in this assay is L1210 Leukemia (intraperitoneal) in B6D2F1 (BDF1) mice

[1] = dose: 100.0 mg/kg/injection, schedule: Q01DX001 (ip), vehicle: saline

Measured: T/C

C(#[C][Sn]([c]1ccccc1)([c]1ccccc1)[c]1ccccc1)c1ccccc1
inactive: dose: 25.0 mg/kg/injection, schedule: Q04DX002 (ip), vehicle: Klucel (hydroxypropylcellulose) (HPC) 97 % of control | dose: 50.0 mg/kg/injection, schedule: Q04DX002 (ip), vehicle: Klucel (hydroxypropylcellulose) (HPC) 90 % of control

COc1cc(C=Nc2ccc(-c3nc(Cc4ccccc4)sc3C)cc2)ccc1N(CCCl)CCCl
active: dose: 30.0 mg/kg/injection, schedule: Q01DX009 (ip), vehicle: Klucel (hydroxypropylcellulose) (HPC) 153 % of control | dose: 45.0 mg/kg/injection, schedule: Q01DX001 (ip), vehicle: carboxymethylcellulose (CMC) 166 % of control
inactive: dose: 4.0 mg/kg/injection, schedule: Q01DX009 (ip), vehicle: saline 102 % of control | dose: 6.0 mg/kg/injection, schedule: Q01DX009 (ip), vehicle: Klucel (hydroxypropylcellulose) (HPC) 109 % of control | dose: 6.0 mg/kg/injection, schedule: Q01DX009 (ip), vehicle: saline 103 % of control | dose: 8.0 mg/kg/injection, schedule: Q01DX009 (ip), vehicle: Klucel (hydroxypropylcellulose) (HPC) 112 % of control | dose: 8.0 mg/kg/injection, schedule: Q01DX009 (ip), vehicle: carboxymethylcellulose (CMC) 124 % of control | dose: 8.0 mg/kg/injection, schedule: Q01DX009 (ip), vehicle: saline 102 % of control | dose: 13.0 mg/kg/injection, schedule: Q01DX001 (ip), vehicle: Klucel (hydroxypropylcellulose) (HPC) 109 % of control | dose: 13.0 mg/kg/injection, schedule: Q01DX001 (ip), vehicle: saline 93 % of control | dose: 13.0 mg/kg/injection, schedule: Q01DX009 (ip), vehicle: saline 100 % of control | dose: 20.0 mg/kg/injection, schedule: Q01DX001 (ip), vehicle: Klucel (hydroxypropylcellulose) (HPC) 113 % of control | dose: 20.0 mg/kg/injection, schedule: Q01DX001 (ip), vehicle: saline 91 % of control | dose: 20.0 mg/kg/injection, schedule: Q01DX009 (ip), vehicle: carboxymethylcellulose (CMC) 106 % of control | dose: 20.0 mg/kg/injection, schedule: Q01DX009 (ip), vehicle: saline 105 % of control | dose: 30.0 mg/kg/injection, schedule: Q01DX001 (ip), vehicle: Klucel (hydroxypropylcellulose) (HPC) 124 % of control | dose: 30.0 mg/kg/injection, schedule: Q01DX001 (ip), vehicle: saline 102 % of control | dose: 44.0 mg/kg/injection, schedule: Q01DX001 (ip), vehicle: carboxymethylcellulose (CMC) 122 % of control | dose: 45.0 mg/kg/injection, schedule: Q01DX001 (ip), vehicle: Klucel (hydroxypropylcellulose) (HPC) 121 % of control | dose: 45.0 mg/kg/injection, schedule: Q01DX001 (ip), vehicle: saline 110 % of control | dose: 66.0 mg/kg/injection, schedule: Q01DX001 (ip), vehicle: saline 106 % of control | [1] 112 % of control and 124 % of control | dose: 150.0 mg/kg/injection, schedule: Q01DX001 (ip), vehicle: carboxymethylcellulose (CMC) 108 % of control | dose: 200.0 mg/kg/injection, schedule: Q01DX001 (ip), vehicle: carboxymethylcellulose (CMC) 97 % of control

Nc1nc(N)c2nc(COc3ccc(C(=O)NC(CCC(=O)O)C(=O)O)cc3)cnc2n1 (stereo unspecified)
inactive: dose: 0.5 mg/kg/injection, schedule: Q01DX009 (ip), vehicle: sodium bicarbonate 122 % of control | dose: 0.8 mg/kg/injection, schedule: Q01DX009 (ip), vehicle: sodium bicarbonate 122 % of control | dose: 2.5 mg/kg/injection, schedule: Q01DX009 (ip), vehicle: sodium bicarbonate 122 % of control | dose: 5.0 mg/kg/injection, schedule: Q01DX009 (ip), vehicle: sodium bicarbonate 100 % of control and 90 % of control

NP(Cl)(c1ccccc1)(c1ccccc1)c1ccccc1
inactive: dose: 0.2 mg/kg/injection, schedule: Q04DX003 (ip), vehicle: Klucel (hydroxypropylcellulose) (HPC) 96 % of control | dose: 0.39 mg/kg/injection, schedule: Q04DX003 (ip), vehicle: Klucel (hydroxypropylcellulose) (HPC) 99 % of control | dose: 0.78 mg/kg/injection, schedule: Q04DX003 (ip), vehicle: Klucel (hydroxypropylcellulose) (HPC) 97 % of control

O=C1Nc2ccccc2C1=Nc1ccc(F)cc1
inactive: [1] 96 % of control | dose: 200.0 mg/kg/injection, schedule: Q01DX001 (ip), vehicle: saline 92 % of control | dose: 400.0 mg/kg/injection, schedule: Q01DX001 (ip), vehicle: saline 94 % of control
